The text below walks through data of ChEMBL document CHEMBL1159189, “Pyrazolo[3,4-d]pyrimidines; adenosine receptor selectivity” (Bioorg Med Chem Lett, 1995).

Assay [1] has as its target T1, Adenosine receptor A2a (Rattus norvegicus, UniProt P30543). As to the kind of experiment: Inhibitory activity against Adenosine A2a receptor binding site.
Assay [2] addresses T1, Adenosine receptor A2a. As to the kind of experiment: Binding affinity towards Adenosine A2a receptor by inhibition of [3H]CGS-21680 binding to rat brain striatum membranes. It is filed as cell membranes, Membrane.
The target in assay [3] is T2, Adenosine receptor A1 (Rattus norvegicus, UniProt P25099).
T2 sequence (P25099 whole entry): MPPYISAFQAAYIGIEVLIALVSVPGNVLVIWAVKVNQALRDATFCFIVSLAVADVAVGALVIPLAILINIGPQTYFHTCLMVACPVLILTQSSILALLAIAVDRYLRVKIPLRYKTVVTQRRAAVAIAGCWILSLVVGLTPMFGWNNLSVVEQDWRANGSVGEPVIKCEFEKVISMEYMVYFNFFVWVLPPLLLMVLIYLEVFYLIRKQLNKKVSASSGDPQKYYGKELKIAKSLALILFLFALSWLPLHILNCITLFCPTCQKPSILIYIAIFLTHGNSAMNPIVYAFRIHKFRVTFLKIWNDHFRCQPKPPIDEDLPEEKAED
As to the kind of experiment: Binding affinity for Adenosine A1 receptor by inhibition of [3H]PIA binding to whole rat brain membranes. The class given is cell membranes, Membrane.

Assay [4] addresses Adenosine receptors; A1 & A2a (Rattus norvegicus) (UniProt P25099+P30543). Kind of assay: Ratio of binding affinities for adenosine receptor A2a and adenosine receptor A1. It is filed as protein assay.

Broadly, the IC50 is the concentration that gives 50% inhibition. As a reminder, the Ki is a measure of affinity in units of concentration, obtained from inhibition or displacement.

Adenosine receptors; A1 & A2a (Rattus norvegicus), sequence (P30543 whole entry, looked up, one chain of several): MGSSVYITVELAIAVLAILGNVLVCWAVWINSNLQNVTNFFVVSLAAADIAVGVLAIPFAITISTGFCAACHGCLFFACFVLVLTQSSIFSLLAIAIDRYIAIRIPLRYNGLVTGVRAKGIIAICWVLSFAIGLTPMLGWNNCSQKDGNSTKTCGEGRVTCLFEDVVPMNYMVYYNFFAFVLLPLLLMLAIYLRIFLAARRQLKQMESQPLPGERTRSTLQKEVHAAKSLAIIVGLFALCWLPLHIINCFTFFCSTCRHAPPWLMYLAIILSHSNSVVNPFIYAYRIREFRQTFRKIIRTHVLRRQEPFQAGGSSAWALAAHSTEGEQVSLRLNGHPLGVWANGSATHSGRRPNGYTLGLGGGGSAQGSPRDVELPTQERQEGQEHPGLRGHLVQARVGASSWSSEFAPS
T1 sequence (P30543 whole entry): as the sequence (P30543 whole entry, looked up, one chain of several) above

On to `CCCCn1c(=O)[nH]c2c(cnn2-c2cccc(Cl)c2)c1=N`, for which the half-inhibitory concentration (IC50) in assay [1] is 19200 nM. In other words, the double-digit micromolar range.

`NC(=O)CSc1nc(N)c2cnn(-c3ccccc3)c2n1`: the inhibition constant (Ki) in assay [2] is 44.9 nM; in assay [3] it was 28.5 nM. In addition, in assay [4], the Ratio is 1.6.

As to `CCNC(=O)CCSc1nc(N)c2cnn(-c3ccccc3)c2n1`, the inhibition constant Ki in assay [2] is 1280 nM; in assay [3], 551 nM. In addition, the Ratio in assay [4] was found to be 2.3.

As to `CC(Sc1nc(SC(C)C(N)=O)c2cnn(-c3ccccc3)c2n1)C(N)=O` (stereo not given), the Ki in assay [2] was determined as 146 nM; in assay [3] it was 229 nM.

For the compound `NC(=O)CCSc1nc(N)c2cnn(-c3ccccc3)c2n1`, the results for the Ki in assay [2] and in assay [3] were 101 nM and 428 nM, respectively. In addition, the Ratio in assay [4] worked out at 0.24.

In the case of `CCNC(=O)CSc1nc(N)c2cnn(-c3ccccc3)c2n1`, the values for the Ki in assay [2] and in assay [3] were 131 nM and 12.1 nM, respectively. Moreover, in assay [4], the Ratio was found to be 10.8.
